The target in experiment [1] is T1, human CB2 receptor (Homo sapiens, UniProt P34972).
T1 construct: expressed in transfected cells; host or cells: SK-N-MC cells, stably transfected with pcDNA3 CB-2 (human); semi-purified membrane pellet
Put plainly: Binding assay for CB2 agonists or inverse agonists, [3H]-CP-55,940 displacement on membranes of transfected SK-N-MC cells. On the procedure:
(§1) The human CB1 and CB2 receptors were stably expressed in SK-N-MC cells transfected with pcDNA3 CB-1 (human) or pcDNA3 CB-2 (human). The cells were grown in T-180 cell culture flasks under standard cell culture conditions at 37° C. in a 5% CO2 atmosphere. The cells were harvested by trysinization and homogenized in a homogenization buffer (10 mM Tris, 0.2 mM MgCl2, 5 mM KCl, with protease inhibitors aprotinin, leupeptin, pepstatin A and bacitracin) and centrifuged (2000 g). The supernatant was then centrifuged in 2M sucrose (31,300 g) to produce a semi-purified membrane pellet. The pellet was resuspended in homogenization and stored at −80° C.
(§2) On the day of the assay, the pellet was thawed on ice and diluted in assay buffer (50 mM Tris-HCl, 5 mM MgCl2, 2.5 mM EDTA, 0.5 mg/mL fatty acid free bovine serum albumin, pH 7.5). […] The plate was covered and incubated for 90 minutes at 30° C. The contents were then aspirated onto a Packard Unifilter GF/C filter bottom plate prewet with 0.5% polyethyleneimine. The wells of the polypropylene plate were rinsed and aspirated seven times with a 0.9% saline-0.5% Tween 20 solution. The Unifilter plate was dried, a scintillation cocktail was added to each well and the counts representing binding were quantitated in a TopCount scintillation counter.
(§3) For compounds tested, an IC50 binding value was obtained from percent inhibition studies in which various test concentrations were used. The binding value was calculated by linear regression. An average value is shown for those compounds where two or more IC50 values were obtained.
(§4) An average value is shown for those compounds where two or more percent inhibition values were obtained.

Experiment [2] deals with T2, human CB1 receptor (Homo sapiens, UniProt P21554).
T2 construct: expressed in transfected cells; host or cells: SK-N-MC cells, stably transfected with pcDNA3 CB-1 (human); semi-purified membrane pellet
Put plainly: Binding assay for CB1 agonists or inverse agonists, [3H]-CP-55,940 displacement on membranes of transfected SK-N-MC cells. To be noted: for inhibition at 0.2 µM: read-out: Cannabinoid CB1 Receptor Binding percent inhibition. On the procedure:
as §1, §2, §3, §4

Setting [3] is: read-out: Cannabinoid CB2 Receptor Binding percent inhibition.

Inhibition and IC50 data for 19 compounds are collected here from patent US7795294B2, “Tetrahydro-2H-indazole pyrazole cannabinoid modulators” (Janssen Pharmaceutica N.V., priority 2006, dated 2010).

Each structure is given as a SMILES string. Read-outs that look alike come from different tables or passages of the source.

T2 sequence (P21554 whole entry): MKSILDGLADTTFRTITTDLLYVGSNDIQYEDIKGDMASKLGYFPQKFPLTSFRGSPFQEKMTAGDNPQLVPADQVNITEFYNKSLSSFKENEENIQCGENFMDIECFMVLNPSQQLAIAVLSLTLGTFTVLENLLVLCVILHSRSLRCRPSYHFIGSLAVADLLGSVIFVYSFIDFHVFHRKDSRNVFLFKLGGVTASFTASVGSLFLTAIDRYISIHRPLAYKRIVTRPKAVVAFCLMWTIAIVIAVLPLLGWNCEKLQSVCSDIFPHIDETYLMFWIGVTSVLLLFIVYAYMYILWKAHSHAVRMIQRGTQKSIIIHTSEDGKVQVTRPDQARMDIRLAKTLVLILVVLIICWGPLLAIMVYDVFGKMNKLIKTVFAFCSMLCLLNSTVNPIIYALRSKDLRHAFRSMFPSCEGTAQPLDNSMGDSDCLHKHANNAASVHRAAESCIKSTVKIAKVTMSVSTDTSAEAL
T1 sequence (P34972 whole entry): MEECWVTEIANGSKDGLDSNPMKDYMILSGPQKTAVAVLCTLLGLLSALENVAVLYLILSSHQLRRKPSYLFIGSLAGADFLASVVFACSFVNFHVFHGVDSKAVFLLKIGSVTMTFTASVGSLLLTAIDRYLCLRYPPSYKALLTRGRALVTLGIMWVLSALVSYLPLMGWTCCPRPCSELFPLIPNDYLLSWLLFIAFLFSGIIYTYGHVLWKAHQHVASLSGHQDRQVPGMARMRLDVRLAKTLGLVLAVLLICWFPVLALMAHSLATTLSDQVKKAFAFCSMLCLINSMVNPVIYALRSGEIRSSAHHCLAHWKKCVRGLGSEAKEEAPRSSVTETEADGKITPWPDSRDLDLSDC

`O=C(NN1CCCCC1)C1CCCc2c1nn(-c1ccc(Cl)cc1Cl)c2-c1ccc(Br)cc1` (centres unmarked) [Cpd 41, 3-(4-bromo-phenyl)-2-(2,4-dichloro-phenyl)-4,5,6,7-tetrahydro-2H-indazole-7-carboxylic acid piperidin-1-ylamide]: in experiment [1] (setting [3]), the inhibition at 0.2 µM was found to be 26%. The IC50 in experiment [2] was determined as 40 nM.
As for `CC(NC(=O)C1CCCc2c1nn(Cc1ccccc1)c2-c1cccc(F)c1)C1CCCCC1` (centres unmarked) [Cpd 9, 2-benzyl-3-(3-fluoro-phenyl)-4,5,6,7-tetrahydro-2H-indazole-7-carboxylic acid (1-cyclohexyl-ethyl)-amide], the IC50 in experiment [1] was 2130 nM; in experiment [2], 3500 nM.
For the compound `CC(NC(=O)C1CCCc2c1nn(Cc1ccccc1)c2-c1cccc(F)c1)C12CCC3CC(CC3C1)C2` (centres unmarked) [Cpd 20, 2-benzyl-3-(3-fluoro-phenyl)-4,5,6,7-tetrahydro-2H-indazole-7-carboxylic acid [1-(octahydro-2,5-methano-inden-5-yl)-ethyl]-amide], the figures for the IC50 in experiment [1] and in experiment [2] were 70 nM and 130 nM, respectively.
Regarding `CCOC(=O)[C@H]1C2CCC(C2)[C@@H]1NC(=O)C1CCCc2c1nn(-c1ccc(OC)cc1)c2-c1ccc(C)cc1` (stereo partly drawn) [Cpd 3, (2S,3S)-3-{[2-(4-methoxy-phenyl)-3-p-tolyl-4,5,6,7-tetrahydro-2H-indazole-7-carbonyl]-amino}-bicyclo[2.2.1]heptane-2-carboxylic acid ethyl ester], the IC50 in experiment [1] (radioligand CP-55,940 0.2 nM, average where two or more values, read-out: Cannabinoid CB2 Receptor Binding IC50) was 370 nM; in experiment [2], 60 nM.
Take `O=C(NN1CCCCCC1)C1CCCc2c1nn(-c1ccc(Cl)cc1Cl)c2-c1ccc(Cl)cc1` (centres unmarked) [Cpd 34, 3-(4-chloro-phenyl)-2-(2,4-dichloro-phenyl)-4,5,6,7-tetrahydro-2H-indazole-7-carboxylic acid azepan-1-ylamide]: in experiment [1] (setting [3]), the inhibition at 0.2 µM amounted to 0%. Also, the IC50 in experiment [2] amounted to 35 nM.
On the same counts, the results for `C[C@@H](NC(=O)[C@@H]1CCCc2c1nn(-c1ccc(Cl)cc1Cl)c2-c1ccc(Cl)cc1)c1ccccc1` [Cpd 40, (7R)-3-(4-chloro-phenyl)-2-(2,4-dichloro-phenyl)-4,5,6,7-tetrahydro-2H-indazole-7-carboxylic acid [(1R)-1-phenyl-ethyl]-amide] are 11% and 0.6 nM.
With `COc1ccc(-c2c3c(nn2-c2ccc(Cl)cc2Cl)C(C(=O)N[C@H](C)c2ccccc2)CCC3)cc1` (stereo partly drawn) [Cpd 23, 2-(2,4-dichloro-phenyl)-3-(4-methoxy-phenyl)-4,5,6,7-tetrahydro-2H-indazole-7-carboxylic acid [(1R)-1-phenyl-ethyl]-amide], in experiment [1] (setting [3]), the inhibition at 0.2 µM came out at 28%. In experiment [2], this compound came in with an IC50 of 8 nM.
For the compound `Cc1ccc(-c2c3c(nn2Cc2ccccc2)C(C(=O)NC2C4(C)CCC(C4)C2(C)C)CCC3)cc1` (centres unmarked) [Cpd 6, 2-benzyl-3-p-tolyl-4,5,6,7-tetrahydro-2H-indazole-7-carboxylic acid (1,3,3-trimethyl-bicyclo[2.2.1]hept-2-yl)-amide], the IC50 in experiment [1] was determined as 840 nM; in experiment [2], 400 nM.
For the compound `COc1ccc(-n2nc3c(c2-c2ccc(C)cc2)CCCC3C(=O)N[C@H]2C3(C)CCC(C3)C2(C)C)cc1` (stereo partly drawn) [Cpd 16, 2-(4-methoxy-phenyl)-3-p-tolyl-4,5,6,7-tetrahydro-2H-indazole-7-carboxylic acid [(2S)-1,3,3-trimethyl-bicyclo[2.2.1]hept-2-yl]-amide], the inhibition at 25 µM in experiment [1] (setting [3]) worked out at 66%. For the same compound, in experiment [2] (radioligand CP-55,940 0.2 nM, average where two or more values, read-out: Cannabinoid CB1 Receptor Binding IC50), the concentration for half-maximal inhibition (IC50) was 180 nM.
Take `CC(NC(=O)C1CCCc2c1nn(Cc1ccccc1)c2-c1ccc(Cl)cc1)C1CCCCC1` (centres unmarked) [Cpd 5, 2-benzyl-3-(4-chloro-phenyl)-4,5,6,7-tetrahydro-2H-indazole-7-carboxylic acid (1-cyclohexyl-ethyl)-amide]: the IC50 in experiment [1] is 6100 nM; in experiment [2], 700 nM.
On to `C[C@@H](NC(=O)[C@@H]1CCCc2c1nn(-c1ccc(Cl)cc1Cl)c2-c1ccc(Br)s1)C1CCCCC1` [Cpd 55, (7R)-3-(5-bromo-thiophen-2-yl)-2-(2,4-dichloro-phenyl)-4,5,6,7-tetrahydro-2H-indazole-7-carboxylic acid [(1R)-1-cyclohexyl-ethyl]-amide], for which the inhibition at 0.2 µM in experiment [1] (setting [3]) was found to be 27%. Further, the IC50 in experiment [2] worked out at 3 nM.
For `C[C@@H](NC(=O)[C@H]1CCCc2c1nn(-c1ccc(Cl)cc1Cl)c2-c1ccc(Br)s1)C1CCCCC1` [Cpd 54, (7S)-3-(5-bromo-thiophen-2-yl)-2-(2,4-dichloro-phenyl)-4,5,6,7-tetrahydro-2H-indazole-7-carboxylic acid [(1R)-1-cyclohexyl-ethyl]-amide], the inhibition at 0.2 µM in experiment [1] (setting [3]) worked out at 12%; in experiment [2], 35%.
On to `COc1ccc(-c2c3c(nn2-c2ccc(Cl)cc2Cl)C(C(=O)NN2CCCCCC2)CCC3)cc1` (centres unmarked) [Cpd 22, 2-(2,4-dichloro-phenyl)-3-(4-methoxy-phenyl)-4,5,6,7-tetrahydro-2H-indazole-7-carboxylic acid azepan-1-ylamide], for which the inhibition at 0.2 µM amounted to 22% in experiment [1] (setting [3]) and 59% in experiment [2].
With `C[C@@H](NC(=O)[C@@H]1CCCc2c1nn(-c1ccc(Cl)cc1Cl)c2-c1ccc(Br)cc1)c1ccccc1` [Cpd 46, (7R)-3-(4-bromo-phenyl)-2-(2,4-dichloro-phenyl)-4,5,6,7-tetrahydro-2H-indazole-7-carboxylic acid [(1R)-1-phenyl-ethyl]-amide], in experiment [1] (setting [3]), the inhibition at 0.2 µM stood at 28%. Further, the IC50 in experiment [2] is 0.8 nM.
Take `C[C@@H](NC(=O)C1CCCc2c1nn(-c1ccc(Cl)cc1Cl)c2-c1ccc(F)cc1)C1CCCCC1` (stereo partly drawn) [Cpd 36, 2-(2,4-dichloro-phenyl)-3-(4-fluoro-phenyl)-4,5,6,7-tetrahydro-2H-indazole-7-carboxylic acid [(1R)-1-cyclohexyl-ethyl]-amide]: the inhibition at 0.2 µM in experiment [1] (setting [3]) is 0%. In experiment [2], the IC50 worked out at 2 nM.
As to `COc1ccc(-n2nc3c(c2-c2ccc(C)cc2)CCCC3C(=O)N[C@@H]2C3CCC(C3)[C@@H]2CO)cc1` (stereo partly drawn) [Cpd 17, 2-(4-methoxy-phenyl)-3-p-tolyl-4,5,6,7-tetrahydro-2H-indazole-7-carboxylic acid [(2R,3S)-3-hydroxymethyl-bicyclo[2.2.1]hept-2-yl]-amide], the IC50 was 1570 nM in experiment [1] and 1800 nM in experiment [2].
As for `COc1ccc(-c2c3c(nn2-c2ccc(Cl)cc2Cl)C(C(=O)NN2CC4CCCC4C2)CCC3)cc1` (centres unmarked) [Cpd 28, 2-(2,4-dichloro-phenyl)-3-(4-methoxy-phenyl)-4,5,6,7-tetrahydro-2H-indazole-7-carboxylic acid (hexahydro-cyclopenta[c]pyrrol-2-yl)-amide], the results for the inhibition at 0.2 µM in experiment [1] (setting [3]) and in experiment [2] were 23% and 59%, respectively.
In the same order, the values of `COc1ccc(-c2c3c(nn2-c2ccc(Cl)cc2Cl)C(C(=O)NN2CCCCC2)CCC3)cc1` (centres unmarked) [Cpd 21, 2-(2,4-dichloro-phenyl)-3-(4-methoxy-phenyl)-4,5,6,7-tetrahydro-2H-indazole-7-carboxylic acid piperidin-1-ylamide] are 18% and 42%.
As to `Cc1ccc(-c2c3c(nn2Cc2ccccc2)C(C(=O)NC(C)C2CCCCC2)CCC3)cc1` (centres unmarked) [Cpd 8, 2-benzyl-3-p-tolyl-4,5,6,7-tetrahydro-2H-indazole-7-carboxylic acid (1-cyclohexyl-ethyl)-amide], the values for the IC50 in experiment [1] and in experiment [2] were 1100 nM and 240 nM, respectively.

A word on the inhibition: it is how much of the control response was suppressed. Usually IC50 stands for the point on the concentration scale where inhibition reaches its midpoint.
